Reference: patent publication US20260098026A1, “M4 ACTIVATORS/MODULATORS AND USES THEREOF” (Cerevel Therapeutics, LLC, priority 2022, published 2026)

Legend:
Assay type in all cases: cell-based
[1] = target: T1, M3 muscarinic acetylcholine receptor (mAChR) (Homo sapiens, UniProt P20309); experiment: FLIPR calcium assay (Fluo 8), M3-overexpressing CHO-K1 cells
T1 construct: expressed in transfected cells; host or cells: CHO-K1
Procedure, shortened: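 CHO-K1 cells overexpressing each human receptor seeded at 15,000 per well, grown overnight at 37° C., 5% CO2, then loaded with Fluo-8 for 30 min. Compounds in HBSS added and calcium response read on FLIPR; EC50 and Emax calculated per subtype.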

[2] = target: T2, M5 muscarinic acetylcholine receptor (mAChR) (Homo sapiens, UniProt P08912); experiment: FLIPR calcium assay (Fluo 8), M5-overexpressing CHO-K1 cells
T2 construct: expressed in transfected cells; host or cells: CHO-K1
T2 sequence (P08912 1-532): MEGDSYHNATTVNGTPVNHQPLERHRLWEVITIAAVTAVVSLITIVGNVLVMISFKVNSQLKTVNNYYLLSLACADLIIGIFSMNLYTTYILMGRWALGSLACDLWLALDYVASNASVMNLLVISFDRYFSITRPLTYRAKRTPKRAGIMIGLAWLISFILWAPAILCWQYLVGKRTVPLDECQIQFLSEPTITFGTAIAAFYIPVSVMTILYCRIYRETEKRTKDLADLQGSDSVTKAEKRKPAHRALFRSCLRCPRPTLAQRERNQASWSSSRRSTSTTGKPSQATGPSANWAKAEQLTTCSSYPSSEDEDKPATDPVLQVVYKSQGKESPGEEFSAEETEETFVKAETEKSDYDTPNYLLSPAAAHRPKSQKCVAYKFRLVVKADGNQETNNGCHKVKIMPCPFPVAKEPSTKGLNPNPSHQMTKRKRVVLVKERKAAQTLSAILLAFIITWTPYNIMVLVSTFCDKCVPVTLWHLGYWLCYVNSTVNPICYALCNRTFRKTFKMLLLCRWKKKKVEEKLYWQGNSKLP
Description: (§1) Stimulation of a Gq-coupled G-protein coupled receptors (GPCRs), result in an efflux of calcium from the endoplasmic reticulum to the cytoplasm (Berridge, 1993), thus rendering this assay appropriate for the assessment of M1, M3 and M5 receptors. CHO-K1 cells overexpressing the M1, M3, or M5 muscarinic acetylcholine receptor (mAChR) were dispensed at 15,000 cells per well in 30 μl volume to 384-well plates and grown overnight at 37° C. in a 5% CO2 atmosphere. Fluo-8 Solution, 10 μl per well, was added to each well and incubated for 30 minutes at 37° C. in a 5% CO2 atmosphere. Compounds diluted in Hanks' balanced salt solution (HBSS) were transferred to the cell assay plate at 10 μl per well, and then read on a FLIPR instrument. EC50 and Emax figures were calculated from the resulting data for each receptor subtype.

[3] = target: T3, M4 mAChR (Homo sapiens, UniProt P08173); experiment: cAMP TR-FRET assay with forskolin, M4-overexpressing CHO-K1 cells
T3 construct: expressed in transfected cells; host or cells: CHO-K1
T3 sequence (P08173 1-479): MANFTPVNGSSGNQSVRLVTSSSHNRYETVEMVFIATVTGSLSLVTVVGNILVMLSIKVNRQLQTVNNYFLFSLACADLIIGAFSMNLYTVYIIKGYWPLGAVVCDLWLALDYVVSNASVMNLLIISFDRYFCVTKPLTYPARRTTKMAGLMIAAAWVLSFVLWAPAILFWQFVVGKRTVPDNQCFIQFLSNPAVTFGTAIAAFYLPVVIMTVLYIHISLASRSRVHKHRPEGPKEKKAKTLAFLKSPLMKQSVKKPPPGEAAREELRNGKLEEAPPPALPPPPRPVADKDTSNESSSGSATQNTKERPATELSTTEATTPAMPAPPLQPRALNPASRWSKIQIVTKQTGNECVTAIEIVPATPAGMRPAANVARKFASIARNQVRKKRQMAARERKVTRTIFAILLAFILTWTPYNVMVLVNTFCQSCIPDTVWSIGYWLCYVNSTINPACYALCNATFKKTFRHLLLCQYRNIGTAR
Procedure, shortened: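 CHO-K1 cells overexpressing the receptor were stimulated with forskolin to raise cAMP, so that Gi-mediated agonist decreases could be measured. cAMP was quantified by TR-FRET competition between cellular cAMP and labelled donor for anti-cAMP antibody, giving potency and efficacy.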

[4] = target: T4, M1 muscarinic acetylcholine receptor (mAChR) (Homo sapiens, UniProt P11229); experiment: FLIPR calcium assay (Fluo 8), M1-overexpressing CHO-K1 cells
T4 construct: expressed in transfected cells; host or cells: CHO-K1
T4 sequence (P11229 1-460): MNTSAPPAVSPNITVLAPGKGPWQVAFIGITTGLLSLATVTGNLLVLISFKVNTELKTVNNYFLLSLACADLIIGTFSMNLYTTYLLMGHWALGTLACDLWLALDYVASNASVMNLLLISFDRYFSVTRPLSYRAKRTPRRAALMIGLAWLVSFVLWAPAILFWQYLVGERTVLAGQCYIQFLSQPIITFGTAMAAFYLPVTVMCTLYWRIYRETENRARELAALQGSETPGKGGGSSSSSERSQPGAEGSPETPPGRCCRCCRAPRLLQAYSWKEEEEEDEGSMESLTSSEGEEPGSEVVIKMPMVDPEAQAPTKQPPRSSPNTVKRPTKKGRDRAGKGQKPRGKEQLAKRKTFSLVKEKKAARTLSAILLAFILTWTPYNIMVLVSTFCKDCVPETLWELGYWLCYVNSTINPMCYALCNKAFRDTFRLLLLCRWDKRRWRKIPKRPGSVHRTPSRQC
Description: as §1

T1 sequence (P20309 whole entry): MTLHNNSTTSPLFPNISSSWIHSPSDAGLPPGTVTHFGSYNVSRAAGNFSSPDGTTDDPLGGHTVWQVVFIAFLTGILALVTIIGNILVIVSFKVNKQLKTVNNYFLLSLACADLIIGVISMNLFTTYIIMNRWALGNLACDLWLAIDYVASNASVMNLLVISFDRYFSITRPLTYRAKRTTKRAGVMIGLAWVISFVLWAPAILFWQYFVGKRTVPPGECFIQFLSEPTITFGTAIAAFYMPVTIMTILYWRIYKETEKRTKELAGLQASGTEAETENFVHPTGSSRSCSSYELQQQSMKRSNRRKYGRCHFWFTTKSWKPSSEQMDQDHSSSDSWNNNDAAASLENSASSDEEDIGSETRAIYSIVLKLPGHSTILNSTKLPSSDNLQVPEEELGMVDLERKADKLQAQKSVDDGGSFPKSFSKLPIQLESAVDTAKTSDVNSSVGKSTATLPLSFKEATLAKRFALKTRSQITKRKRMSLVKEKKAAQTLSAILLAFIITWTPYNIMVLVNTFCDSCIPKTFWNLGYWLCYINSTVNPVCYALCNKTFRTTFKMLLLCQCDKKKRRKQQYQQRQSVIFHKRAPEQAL

Row | EC50 ([1]; FLIPR calcium) | Emax ([2]; FLIPR calcium) | Emax ([3]; cAMP TR-FRET with forskolin) | Emax ([4]; FLIPR calcium) | Emax ([4]; FLIPR) | EC50 ([1]; FLIPR) | Emax ([3]; cAMP assay) | Emax ([2]; FLIPR) | SMILES
1 | > 10 µM | 19 to 49.9% | 80 to 100% |  |  |  |  |  | CCOC(=O)N1CC2(CC[C@@H](N3CCN(c4cccnc4-c4cncc(OC)c4)CC3)C2)C1 [Compound A1, ethyl (6R)-6-[4-[2-(5-methoxy-3-pyridyl)-3-pyridyl]piperazin-1-yl]-2-azaspiro[3.4]octane-2-carboxylate]
2 | > 10 µM |  | 80 to 100% | 19 to 49.9% |  |  |  |  | CCOC(=O)N1CC2(CC[C@@H](N3CCN(c4cc(F)cnc4-c4ccc(F)nc4)CC3)C2)C1 [Compound A2, ethyl (6R)-6-[4-[5-fluoro-2-(6-fluoro-3-pyridyl)-3-pyridyl]piperazin-1-yl]-2-azaspiro[3.4]octane-2-carboxylate]
3 | > 10 µM |  |  | 19 to 49.9% |  |  |  |  | CCOC(=O)N1CC2(CC[C@@H](N3CCN(c4cccnc4N4CCCC4)CC3)C2)C1 [Compound A3, ethyl (6R)-6-[4-(2-pyrrolidin-1-yl-3-pyridyl)piperazin-1-yl]-2-azaspiro[3.4]octane-2-carboxylate]
4 | > 10 µM |  | 80 to 100% | 50 to 79.9% |  |  |  |  | CCOC(=O)N1CC2(CC[C@@H](N3CCN(c4cc(F)cnc4-c4cccnc4OCC)CC3)C2)C1 [Compound A49]
5 | > 10 µM |  | 80 to 100% | 19 to 49.9% |  |  |  |  | CCOC(=O)N1CC2(CC[C@@H](N3CCN(c4cc(F)cnc4-c4cnc5c(c4)ncn5C)CC3)C2)C1 [Compound A51]
6 | > 10 µM |  | 80 to 100% | 19 to 49.9% |  |  |  |  | CCOC(=O)N1CC2(CC[C@@H](N3CCN(c4cc(F)cnc4-c4ccncc4)CC3)C2)C1 [Compound A53]
7 | > 10 µM |  | 80 to 100% | 19 to 49.9% |  |  |  |  | CCOC(=O)N1CC2(CC[C@@H](N3CCN(c4cc(F)cnc4-c4cncs4)CC3)C2)C1 [Compound A59]
8 | > 10 µM | 19 to 49.9% | 80 to 100% | 19 to 49.9% |  |  |  |  | CCOC(=O)N1CC2(CC[C@@H](N3CCN(c4cc(F)cnc4-c4cnc(SC)nc4)CC3)C2)C1 [Compound A63]
9 | > 10 µM |  | 80 to 100% | 19 to 49.9% |  |  |  |  | CCOC(=O)N1CC2(CC[C@@H](N3CCN(c4cc(F)cnc4-c4ccnn4C)CC3)C2)C1 [Compound A67]
10 | > 10 µM |  | 80 to 100% | 19 to 49.9% |  |  |  |  | CCOC(=O)N1CC2(CC[C@@H](N3CCN(c4cc(F)cnc4-c4cn/c(=N\C)[nH]c4)CC3)C2)C1 [Compound A70]
11 | > 10 µM | 19 to 49.9% | 80 to 100% |  |  |  |  |  | CCOC(=O)N1CC2(CC[C@@H](N3CCN(c4cc(F)cnc4-c4cnn(CC(C)C)c4)CC3)C2)C1 [Compound A71]
12 | > 10 µM | 19 to 49.9% | 80 to 100% |  |  |  |  |  | CCOC(=O)N1CC2(CC[C@@H](N3CCN(c4cc(F)cnc4-c4cnn(CC)c4)CC3)C2)C1 [Compound A74]
13 | > 10 µM |  | 80 to 100% | 19 to 49.9% |  |  |  |  | CCOC(=O)N1CC2(CC[C@@H](N3CCN(c4cc(F)cnc4-c4ccc(NC(C)=O)nc4)CC3)C2)C1 [Compound A75]
14 | > 10 µM | 19 to 49.9% | 80 to 100% | 19 to 49.9% |  |  |  |  | CCNc1ncc(-c2ncc(F)cc2N2CCN([C@@H]3CCC4(C3)CN(C(=O)OCC)C4)CC2)cn1 [Compound A80]
15 | > 10 µM |  | 80 to 100% | 19 to 49.9% |  |  |  |  | CCOC(=O)N1CC2(CC[C@@H](N3CCN(c4cc(F)cnc4-c4cncc(O)c4)CC3)C2)C1 [Compound A82]
16 | > 10 µM |  | 80 to 100% | 19 to 49.9% |  |  |  |  | CCOC(=O)N1CC2(CC[C@@H](N3CCN(c4cc(F)cnc4-c4cnc(NC(C)C)nc4)CC3)C2)C1 [Compound A87]

Row | EC50 ([1]; FLIPR calcium) | Emax ([2]; FLIPR calcium) | Emax ([3]; cAMP TR-FRET with forskolin) | Emax ([4]; FLIPR calcium) | Emax ([4]; FLIPR) | EC50 ([1]; FLIPR) | Emax ([3]; cAMP assay) | Emax ([2]; FLIPR) | SMILES
17 | > 10 µM | 19 to 49.9% | 80 to 100% |  |  |  |  |  | CCOC(=O)N1CC2(CC[C@@H](N3CCN(c4cc(F)cnc4-c4ccc(CO)o4)CC3)C2)C1 [Compound A91]
18 | > 10 µM |  | 80 to 100% | 19 to 49.9% |  |  |  |  | CCOC(=O)N1CC2(CC[C@@H](N3CCN(c4cc(F)cnc4-c4ccnn4CC)CC3)C2)C1 [Compound A93]
19 | > 10 µM |  | 80 to 100% | 19 to 49.9% |  |  |  |  | CCOC(=O)N1CC2(CC[C@@H](N3CCN(c4cc(F)cnc4-c4cnc5ccnn5c4)CC3)C2)C1 [Compound A100]
20 | > 10 µM |  | 80 to 100% | 19 to 49.9% |  |  |  |  | CCOC(=O)N1CC2(CC[C@@H](N3CCN(c4cc(F)cnc4-c4ccc(C(=O)NC)cc4)CC3)C2)C1 [Compound A103]
21 | > 10 µM |  | 80 to 100% | 19 to 49.9% |  |  |  |  | CCOC(=O)N1CC2(CC[C@@H](N3CCN(c4cc(F)cnc4-c4ccccc4O)CC3)C2)C1 [Compound A104]
22 | > 10 µM |  | 80 to 100% | 19 to 49.9% |  |  |  |  | CCOC(=O)N1CC2(CC[C@@H](N3CCN(c4cc(F)cnc4-c4cnoc4C)CC3)C2)C1 [Compound A113]
23 | > 10 µM |  | 80 to 100% | < 19% |  |  |  |  | CCOC(=O)N1CC2(CC[C@@H](N3CCN(c4cc(F)cnc4-c4cnc(OC)c(F)c4)CC3)C2)C1 [Compound A139]
24 | > 10 µM |  | 80 to 100% | 19 to 49.9% |  |  |  |  | CCOC(=O)N1CC2(CC[C@@H](N3CCN(c4cc(F)cnc4-c4conc4C)CC3)C2)C1 [Compound A140]
25 | > 10 µM |  | 80 to 100% | 19 to 49.9% |  |  |  |  | CCOC(=O)N1CC2(CC[C@@H](N3CCN(c4cc(F)cnc4-c4cnc(OC)nc4)CC3)C2)C1 [Compound A146]
26 |  |  |  |  | 19 to 49.9% | > 10 µM | 80 to 100% |  | CCOC(=O)N1CC2(CC[C@@H](N3CCN(c4cc(F)cnc4-c4cnc(OC(C)C)nc4)CC3)C2)C1 [Compound A158]
27 |  |  |  |  |  | > 10 µM | 80 to 100% | 19 to 49.9% | CCOC(=O)N1CC2(CC[C@@H](N3CCN(c4cc(F)cnc4-c4cnc(O)c(C)c4)CC3)C2)C1 [Compound A166]
28 |  |  |  |  | 19 to 49.9% | > 10 µM | 80 to 100% |  | CCOC(=O)N1CC2(CC[C@@H](N3CCN(c4cc(F)cnc4-c4cnc(F)nc4)CC3)C2)C1 [Compound A184]
29 |  |  |  |  | 19 to 49.9% | > 10 µM | 80 to 100% |  | CCOC(=O)N1CC2(CC[C@@H](N3CCN(c4cc(F)cnc4-c4cnc(C)nc4)CC3)C2)C1 [Compound A185]
30 |  |  |  |  | 19 to 49.9% | > 10 µM | 80 to 100% | 19 to 49.9% | CCOC(=O)N1CC2(CC[C@@H](N3CCN(c4cc(F)cnc4-c4c[nH]c(=O)c(F)c4)CC3)C2)C1 [Compound A206]
31 |  |  |  |  | 50 to 79.9% | > 10 µM | 80 to 100% | 19 to 49.9% | CCOC(=O)N1CC2(CC[C@@H](N3CCN(c4cc(F)cnc4-c4ccc(=O)[nH]c4)CC3)C2)C1 [Compound A210]
32 |  |  |  |  | 19 to 49.9% | > 10 µM | 80 to 100% |  | CCOC(=O)N1CC2(CC[C@@H](N3CCN(c4cc(F)cnc4N4CCOCC4)CC3)C2)C1 [Compound A289]
